In this test the test system is HEK293 cells. The experiment in a line: Viability assay of HEK293 cells (CellTiter-Glo luminescent cell viability assay). Format: cell-based, human. The settings on record: 7 days (168 h) incubation, 3 μM to 0.00015 μM. How it is done: Viability Assay of HEK293 Cells
A viability assay was performed using the CellTiter-Glo® Luminescent Cell Viability Assay (see Promega Corporation's Technical No. 288, pp. 1-11 [revised February 2004] which is hereby incorporated by reference in its entirety). This assay is a homogeneous method of determining the number of viable cells in culture based on quantitation of the ATP present, an indicator of metabolically active cells. The assay is designed for use with multiwell formats, making it ideal for automated high-throughput screening (HTS), cell proliferation and cytotoxicity assays. The homogeneous assay procedure involves adding a single reagent (containing luciferase, luciferan substrate, and buffer) directly to cells cultured in serum-supplemented medium. Cell washing, removal of medium and multiple pipetting steps are not required. The system detects as few as 15 cells/well in a 384-well format in 10 minutes after adding reagent and mixing.
The homogeneous “add-mix-measure” format results in cell lysis and generation of a luminescent signal proportional to the amount of ATP present. The amount of ATP is directly proportional to the number of cells present in culture. The above-referenced assay generates a “glow-type” luminescent signal, produced by the luciferase reaction, which has a half-life generally greater than five hours, depending on cell type and medium used. The extended half-life eliminates the need to use reagent injectors and provides flexibility for continuous or batch mode processing of multiple plates. […]
HEK293 cells (human embryonic kidney cell line transformed by Adenovirus 5 fragments, ATCC-No. CRL 1573) were cultivated in Dulbecco's Modified Eagle Medium (D-MEM) (1×) liquid (high glucose) (which includes L-Alanyl-L-Glutamine [a stabilized a form of L-Glutamine], 4500 mg/L glucose, and 110 mg/L sodium pyruvate) from Invitrogen Corporation (Invitrogen Catalog Number 31966-021 [now 10569-010] which is hereby incorporated by reference in its entirety), 5% Fetal Calf Serum (FCS, Sigma Cat-No. F4135 [FBS] which is hereby incorporated by reference in its entirety), and 100 Units/ml penicillin/100 μg/ml streptomycin (=Pen/Strep from Invitrogen Cat. No. 15140, which is hereby incorporated by reference in its entirety). […] After 7 days the above viability assay was performed in accordance with the following steps: • Step 1: The cell-plate was equilibrated to room temperature for approximately 30 minutes and than the assay reagent (containing luciferase, luciferan substrate, and buffer) was added. • Step 2: The contents were carefully mixed for 15 minutes to induce cell lysis. • Step 3: After 45 minutes the luminescent signal was measured in Victor 2, (scanning multiwell spectrophotometer, Wallac). […]
A general note: In ATP-based viability assays light output follows the ATP content of the culture.

Molecules are shown by their SMILES.

The term IC50 denotes the concentration at which inhibition is half-maximal. Low values mean inhibition by little substance, high ones a need for much substance.

As for `OC(CCCn1ccnn1)c1ccc(OCc2coc(/C=C/c3ccc(OC(F)(F)F)cc3)n2)cc1` (racemic) [Example 2, (rac)-4-[1,2,3]Triazol-1-yl-1-(4-{2-[(E)-2-(4-trifluoro-methoxyphenyl)-vinyl]-oxazol-4-ylmethoxy}-phenyl)-butan-1-ol], half-maximal inhibition (IC50) required 21.1 nM. Regarding `O=C(CCCn1ccnn1)c1ccc(OCc2coc(/C=C/c3ccc(OC(F)(F)F)cc3)n2)cc1` [Example 1, 4-[1,2,3]Triazol-1-yl-1-(4-{2-[(E)-2-(4-trifluoromethoxy-phenyl)-vinyl]-oxazol-4-ylmethoxy}-phenyl)-butan-1-one], the 50% inhibitory concentration (IC50) (Homo sapiens) turned out to be 17.9 nM. On the same count and under the same terms, then `O=C(CCCn1ccnn1)c1ccc(OCc2coc(/C=C/c3ccc(SC(F)(F)F)cc3)n2)cc1` [Example 3, 4-[1,2,3]Triazol-1-yl-1-(4-{2-[(E)-2-(4-trifluoromethylsulfanyl-phenyl)-vinyl]-oxazol-4-ylmethoxy}-phenyl)-butan-1-one], with 29.9 nM; and `O=C(CCCn1ccnn1)c1ccc(OCc2coc(C=Cc3ccc(C(F)(F)F)cc3)n2)cc1` [Reference compound, 4-[1,2,3]Triazol-1-yl-1-(4-{2-[2-(4-trifluoromethyl-phenyl)-vinyl]-oxazol-4-ylmethoxy}-phenyl)-butan-1-one, reference compound], with 164 nM.

The values are drawn from patent US7288557B2, “Triazole derivatives” (Hoffmann-La Roche Inc., priority 2004, dated 2007).
